Test results from patent US10639284B2, “Immunomodulator compounds” (CHEMOCENTRYX, INC., priority 2016, dated 2020).
Read-outs that look alike come from different tables or passages of the source.

Biological target: human PD-L1 / Human PD-1 (Homo sapiens (Human), UniProt Q9NZQ7)
Assay: Enzyme-Linked Immunosorbent Assay (ELISA), PD-1/PD-L1 binding
Conditions: plate-coated human PD-L1, biotinylated human PD-1, read-out: ELISA IC50
Method: Plates were coated with 1 μg/mL of human PD-L1 (obtained from R&D) in PBS overnight at 4° C. The wells were then blocked with PBS containing 2% BSA in PBS (W/V) with 0.05% TWEEN-20 for 1 hour at 37° C. The plates were washed 3 times with PBS/0.05% TWEEN-20 and the samples were diluted to 1:5 in dilution medium in the ELISA plates. Human PD-1 and biotin 0.3 μg/mL (ACRO Biosystems) were added and incubated for 1 hour at 37° C. then washed 3 times with PBS/0.05% TWEEN-20. A second block was added with PBS containing 2% BSA in PBS (W/V)/0.05% TWEEN-20 for 10 min at 37° C. and was washed 3 times with PBS/0.05% TWEEN-20. Streptavidin-HRP was added for 1 hour at 37° C. then washed 3 times with PBS/0.05% TWEEN-20. TMB substrate was added and reacted for 20 min at 37° C. A stop solution (2 N aqueous H2SO4) was added. The absorbance was read at 450 nm using a micro-plate spectrophotometer.
Compounds in Table 2 and Table 3 were prepared by methods as described in the Examples, and evaluated according to the assay below.

Chain of human PD-L1 / Human PD-1 (Q9NZQ7 19-239): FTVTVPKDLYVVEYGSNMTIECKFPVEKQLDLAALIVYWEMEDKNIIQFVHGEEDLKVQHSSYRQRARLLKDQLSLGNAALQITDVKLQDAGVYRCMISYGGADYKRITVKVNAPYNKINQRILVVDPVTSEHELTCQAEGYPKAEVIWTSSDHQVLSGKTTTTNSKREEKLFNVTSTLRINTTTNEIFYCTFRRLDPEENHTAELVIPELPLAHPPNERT

Row | Compound | IC50 (Table 3) [nM] | IC50 (Table 2) [nM]
1 | O=C(O)[C@H](CO)NCc1cc(Cl)c(O[C@H]2CCc3c(-c4ccc5c(c4F)OCCO5)cccc32)cc1OCc1cc(F)cc(Cl)c1 [Example 3.013] | 500 to 20000 | –
2 | CCOc1cc(O[C@H]2CCc3c(-c4ccccc4F)cccc32)c(Cl)cc1CNC(CO)(CO)CO [Example 2.164] | – | < 100
3 | CC(C)c1nccn1CCCNCc1cc(Cl)c(O[C@H]2CCc3c(-c4ccccc4F)cccc32)cc1OCc1cncc(C#N)c1 [Example 3.090] | 100 to 500 | –
4 | C[C@@H](O)[C@@H](CC(=O)O)NCc1cc(Cl)c(O[C@@H]2CCc3c(-c4ccccc4F)cccc32)cc1OCc1cncc(C#N)c1 [Example 3.064] | 500 to 20000 | –
5 | N#Cc1cncc(-c2cc(O[C@H]3CCc4c(-c5ccccc5F)cccc43)c(Cl)cc2CN2CCC(O)CC2)c1 [Example 2.112] | – | 500 to 20000
6 | CC(C)Oc1cc(O[C@H]2CCc3c(-c4ccccc4)cccc32)c(Cl)cc1CN[C@@H](CO)C(=O)O [Example 2.011] | – | 500 to 20000
7 | N#Cc1cncc(COc2cc(O[C@H]3CCc4c(-c5cc(C#N)ccc5F)cccc43)c(Cl)cc2CN[C@@H](CO)C(=O)O)c1 [Example 2.062] | – | 500 to 20000
8 | N#Cc1cncc(COc2cc(O[C@H]3CCc4c(-c5ccccc5)cccc43)c(Cl)cc2CN[C@@H](CO)C(=O)O)c1 [Example 2.002] | – | < 100
9 | C[C@@](CO)(NCc1cc(Cl)c(O[C@H]2CCc3c(-c4ccc5c(c4F)OCCO5)cccc32)cc1OCc1cncc(C#N)c1)C(=O)O [Example 3.009] | < 100 | –
10 | Cc1ccc(F)c(-c2cccc3c2CC[C@@H]3Oc2cc(OCc3cncc(C#N)c3)c(CN[C@@H](CO)C(=O)O)cc2Cl)c1 [Example 2.067] | – | < 100
11 | N#Cc1cncc(COc2cc(O[C@H]3CCc4c(-c5cc(F)c6c(c5)OCCO6)cccc43)c(Cl)cc2CN[C@@H](CO)C(=O)O)c1 [Example 3.017] | < 100 | –
12 | N#Cc1cncc(COc2cc(O[C@H]3CCc4c(-c5ccccc5F)cccc43)c(Cl)cc2CNC23CC(C2)C3)c1 [Example 2.017] | – | 500 to 20000
13 | COc1ccccc1-c1cccc2c1CC[C@@H]2Oc1cc(OCc2cncc(C#N)c2)c(CN[C@@H](CO)C(=O)O)cc1Cl [Example 2.009] | – | 500 to 20000
14 | N#Cc1cncc(COc2cc(O[C@H]3CCc4c(-c5ccccc5F)cccc43)c(Cl)cc2CNC2(C(=O)O)CCCC2)c1 [Example 2.165] | – | < 100
15 | CCOc1cc(O[C@H]2CCc3c(-c4ccc5c(c4F)OCCO5)cccc32)c(Cl)cc1CN[C@@H](CO)C(=O)O [Example 2.056] | – | < 100
16 | N#Cc1cncc(COc2cc(O[C@H]3CCc4c(-c5ccccc5F)cccc43)c(Cl)cc2CN2CC3(CC(O)C3)C2)c1 [Example 2.119] | – | 100 to 500
17 | Cc1cncc(COc2cc(O[C@H]3CCc4c(-c5ccc6c(c5F)OCCO6)cccc43)c(Cl)cc2CN[C@@H](CO)C(=O)O)c1 [Example 3.025] | < 100 | –
18 | COc1cc(O[C@H]2CCc3c(-c4ccc5c(c4)OCCO5)cccc32)c(Cl)cc1CN1CC(O)C1 [Example 2.042] | – | 500 to 20000
19 | COc1cccc(-c2cccc3c2CC[C@@H]3Oc2cc(OCc3cncc(C#N)c3)c(CN3C[C@H](O)C[C@@H]3C(=O)O)cc2Cl)c1F [Example 2.073] | – | < 100

Row | Compound | IC50 (Table 3) [nM] | IC50 (Table 2) [nM]
20 | CC(C)[C@@H](NCc1cc(Cl)c(O[C@H]2CCc3c(-c4ccccc4F)cccc32)cc1OCc1cncc(C#N)c1)C(=O)O [Example 3.099] | 100 to 500 | –
21 | N#Cc1cncc(COc2cc(O[C@H]3CCc4c(-c5ccccc5F)cccc43)c(Cl)cc2CNCc2ncc(-c3ccccc3)[nH]2)c1 [Example 3.081] | 500 to 20000 | –
22 | COc1cccc(-c2cccc3c2CC[C@@H]3Oc2cc(OCc3cncc(C#N)c3)c(CN3CCC(O)CC3)cc2Cl)c1F [Example 2.052] | – | 100 to 500
23 | O=C(O)[C@H](CO)NCc1cc(Cl)c(O[C@H]2CCc3c(-c4ccccc4F)cccc32)cc1OCc1cncc(Br)c1 [Example 3.100] | < 100 | –
24 | COc1cccc(-c2cccc3c2CC[C@@H]3Oc2cc(OCc3cncc(C#N)c3)c(CN3CCC[C@H](O)C3)cc2Cl)c1F [Example 2.060] | – | 100 to 500
25 | N#Cc1cncc(COc2cc(O[C@H]3CCc4c(-c5ccccc5F)cccc43)c(Cl)cc2CNC2CC(=O)NC(=O)C2)c1 [Example 3.065] | 500 to 20000 | –
26 | CC(C)C[C@H](NCc1cc(Cl)c(O[C@H]2CCc3c(-c4ccccc4F)cccc32)cc1OCc1cncc(C#N)c1)C(=O)O [Example 2.091] | – | 100 to 500
27 | N#Cc1cncc(COc2cc(O[C@H]3CCc4c(-c5ccccc5F)cccc43)c(Cl)cc2CN2CC(O)(C(=O)O)C2)c1 [Example 2.018] | – | 100 to 500
28 | COc1cc(O[C@H]2CCc3c(-c4cccc(OC)c4F)cccc32)c(Cl)cc1CN1CC(O)C1 [Example 2.041] | – | 500 to 20000
29 | N#Cc1cncc(COc2cc(O[C@H]3CCc4c(-c5ccccc5F)cccc43)c(Cl)cc2CN2CCCC(O)C2)c1 (some centres unmarked) [Example 2.030] | – | 100 to 500
30 | O=C(O)[C@H](CO)NCc1cc(Cl)c(O[C@H]2CCc3c(-c4ccccc4F)cccc32)cc1OCc1cnc(Cl)nc1 [Example 2.084] | – | < 100
31 | O=C(O)[C@H](CO)NCc1cc(Cl)c(O[C@H]2CCc3c(-c4ccc5c(c4F)OCCO5)cccc32)cc1OCc1cncc(Cl)c1 [Example 3.027] | < 100 | –
32 | N#Cc1cncc(COc2cc(O[C@H]3CCc4c(-c5ccccc5F)cccc43)c(Cl)cc2CNCCCCN(CCO)CCO)c1 [Example 3.088] | 100 to 500 | –
33 | N#Cc1cncc(COc2cc(O[C@H]3CCc4c(-c5ccc6c(c5F)OCCO6)cccc43)c(Cl)cc2CNC(CO)(CO)CO)c1 [Example 3.057] | < 100 | –
34 | N#Cc1cncc(COc2cc(O[C@H]3CCc4c(-c5ccc6c(c5)OCCO6)cccc43)c(Cl)cc2CN2CC(O)C2)c1 [Example 2.050] | – | < 100
35 | N#Cc1cncc(COc2cc(O[C@H]3CCc4c(-c5ccccc5F)cccc43)c(Cl)cc2CNC(=O)CCCC(=O)O)c1 [Example 2.173] | – | 500 to 20000
36 | Cn1nccc1-c1cncc(COc2cc(O[C@H]3CCc4c(-c5ccccc5F)cccc43)c(Cl)cc2CN[C@@H](CO)C(=O)O)c1 [Example 3.106] | 100 to 500 | –
37 | COc1cccc(-c2cccc3c2CC[C@@H]3Oc2cc(OCc3cncc(C#N)c3)c(CN[C@H](CO)C(=O)O)cc2Cl)c1F [Example 2.107] | – | < 100
38 | Cc1ccc(-c2cccc3c2CC[C@@H]3Oc2cc(OCc3cncc(C#N)c3)c(CN[C@@H](CO)C(=O)O)cc2Cl)c(F)c1 [Example 2.068] | – | 100 to 500

Row | Compound | IC50 (Table 3) [nM] | IC50 (Table 2) [nM]
39 | N#Cc1cncc(COc2cc(O[C@H]3CCc4c(-c5ccccc5F)cccc43)c(Cl)cc2CN[C@H](C(=O)O)[C@H](O)c2ccccc2)c1 [Example 2.132] | – | 100 to 500
40 | N#Cc1cncc(COc2cc(O[C@H]3CCc4c(-c5ccccc5F)cccc43)c(Cl)cc2CN2CC[C@H](C(=O)O)C2)c1 [Example 3.131] | < 100 | –
41 | N#Cc1cncc(COc2cc(O[C@H]3CCc4c(-c5cccc(OC(F)(F)F)c5F)cccc43)c(Cl)cc2CN[C@@H](CO)C(=O)O)c1 [Example 2.069] | – | 500 to 20000
42 | N#Cc1cncc(COc2cc(OC3CCc4c(-c5ccccc5)cccc43)c(Cl)cc2CN2CCCC[C@H]2C(=O)O)c1 (some centres unmarked) [Example 1.005] | – | < 100
43 | CCN(CC)CCCC(C)NCc1cc(Cl)c(O[C@H]2CCc3c(-c4ccccc4F)cccc32)cc1OCc1cncc(C#N)c1 (some centres unmarked) [Example 3.074] | < 100 | –
44 | CCOc1cc(O[C@H]2CCc3c(-c4ccccc4F)cccc32)c(Cl)cc1CN[C@H](CO)C(=O)O [Example 2.156] | – | 100 to 500
45 | CC(N[C@@H](CO)C(=O)O)c1cc(Cl)c(O[C@H]2CCc3c(-c4cccc5c4OCCO5)cccc32)cc1OCc1cncc(C#N)c1 (some centres unmarked) [Example 3.113] | 500 to 20000 | –
46 | N#Cc1cncc(COc2cc(O[C@H]3CCc4c(-c5ccccc5Cl)cccc43)c(Cl)cc2CN[C@@H](CO)C(=O)O)c1 [Example 2.005] | – | < 100
47 | NCCCC[C@H](NCc1cc(Cl)c(O[C@H]2CCc3c(-c4ccccc4F)cccc32)cc1OCc1cncc(C(=O)O)c1)C(=O)O [Example 3.023] | 100 to 500 | –
48 | N#Cc1cncc(COc2cc(OC3CCc4c(-c5ccccc5)cccc43)c(Cl)cc2CNCc2nnn[nH]2)c1 (centres unmarked) [Example 1.003] | – | < 100
49 | CCc1cc(CNCc2cc(Cl)c(O[C@H]3CCc4c(-c5ccccc5F)cccc43)cc2OCc2cncc(C#N)c2)on1 [Example 3.085] | 500 to 20000 | –
50 | O=C(O)[C@H](CO)NCc1cc(Cl)c(O[C@H]2CCc3c(-c4ccc5c(c4F)OCCO5)cccc32)cc1OCc1cc(Cl)cc(Cl)c1 [Example 3.014] | 500 to 20000 | –
51 | CCOC(=O)[C@H](CO)NCc1cc(Cl)c(O[C@H]2CCc3c(-c4ccccc4F)cccc32)cc1OCc1cncc(C#N)c1 [Example 2.162] | – | 500 to 20000
52 | N#Cc1cncc(COc2cc(O[C@H]3CCc4c(-c5ccccc5F)cccc43)c(Cl)cc2CN[C@@H](CC(N)=O)C(=O)O)c1 [Example 2.118] | – | < 100
53 | N#Cc1cncc(COc2cc(O[C@H]3CCc4c(-c5ccccc5F)cccc43)c(Cl)cc2CN[C@@H](C(=O)O)c2ccccc2)c1 [Example 2.176] | – | < 100
54 | N#Cc1cncc(COc2cc(O[C@H]3CCc4c(-c5ccccc5F)cccc43)c(Cl)cc2CNCc2c[nH]cn2)c1 [Example 3.059] | < 100 | –
55 | COC(=O)[C@](C)(CO)NCc1cc(Cl)c(O[C@H]2CCc3c(-c4ccc5c(c4F)OCCO5)cccc32)cc1OCc1cncc(C#N)c1 [Example 3.035] | 100 to 500 | –
56 | N#Cc1cncc(COc2cc(O[C@H]3CCc4c(-c5ccccc5F)cccc43)c(Cl)cc2CNc2cncc(CO)c2)c1 [Example 3.097] | 500 to 20000 | –
